Assay [1] has as its target T1, alpha-synuclein (fibrils) (Homo sapiens, UniProt P37840).
T1 construct: made in house; host or cells: E. coli
As to the kind of experiment: Competition binding assay, protocol 3a, reference ligand [3H]-compound 1, alpha-synuclein fibrils. The following applies: reference ligand [3H]-compound 1 (1 nM). The method, then:
(§1) Alpha-synuclein and tau46 were purified from E. coli according to established protocols (Nuscher B, et al., J. Biol. Chem., 2004; 279(21):21966-75), Aβ1-42 was obtained from rPeptide, Watkinsville, Ga., USA. Fibrils were prepared by aggregation of recombinant protein via constant agitation. In detail, 70 μM of alpha-synuclein mixed with 100 mM NaCl in 50 mM Tris, pH 7.0+0.02% NaN3 were incubated at 1,400 rpm, 37° C. for 96 h. 10 μM of tau46 were incubated with 0.03 mg/ml heparin in 50 mM Tris, pH=7.0 at 1,000 rpm, 37° C. for 72 h. Aβ1-42 was solved in 20 mM NaPi, pH=8.0+0.2 mM EDTA+0.02% NaN3 (Deeg A A, et al., Biochim. Biophys. Acta, 2015; 1850(9): 1884-90; Goedert M, et al. Nature, 1996; 383(6600): 550-3).
(§2) A fixed concentration of sonicated human recombinant αSYN (200 nM/well) or tau46 (208 nM/well) fibrils diluted in phosphate buffered saline (PBS) were incubated in low binding plates (96 well micro test plate, Ratiolab GmbH, Dreieich, Germany) together with 1 nM [^3H]-compound 1 and 1:4 serial dilutions of the cold compound of interest starting from 1 μM diluted in 50 mM Tris-base, 10% EtOH, 0.05% Tween20, pH 7.4. For the calculation of Ki values the KD value of compound 1 toward sonicated human recombinant αSYN fibrils was set to 3 nM.
(§3) Assay plates were incubated under agitation at 37° C. for 2 h covered by plastic foil (Resealable tape, PerkinElmer, Waltham, Mass., USA). Prior to harvesting, a filter (Printed filtermat B, PerkinElmer, Waltham, Mass., USA) was incubated with 5 mg/mL polyethylenimine (PEI, Poly(ethyleneimine) solution, Sigma Aldrich Chemie GmbH, Taufkirchen, Germany) at 4° C. for 30 min. After incubation, bound and free ligands were separated by vacuum filtration using a harvester (Filtermate harvester, PerkinElmer, Waltham, Mass., USA). The filter was washed three times with buffer cooled to 4° C. and subsequently dried in the microwave for 2 min at medium power. The filter was sealed in a plastic bag (Sample bag for MicroBeta®, PerkinElmer, Waltham, Mass., USA) together with added scintillator (BETAPLATE SCINT, PerkinElmer, Waltham, Mass., USA). Accumulation of tritium was counted in a liquid scintillation counter (Wallac MicroBeta® TriLux, 1450 LSC & Luminescence Counter, PerkinElmer, Waltham, Mass., USA) immediately. Radioactivity was plotted against the increasing tritium-labeled compound or cold compound concentrations. Data points were fitted using nonlinear regression analysis in GraphPad Prism (GraphPad Software, Inc., Version 7.03, La Jolla, Calif., USA).
(§4) The fibril competition assay provides Ki values. Ki is a quantitative measure that represents the concentration of the non-radioactive tested compound (competitor ligand) required to replace 50% of a reference compound, in this case [H]-compound 1 (1 nM) or [H]-compound 2 (1 nM), which is bound to the target structures (1 nM), in our case recombinant alpha-synuclein and tau46 fibrils. This assay is suitable for a screening of non-radioactive ligands.

The next assay concerns the target T2, tau46 (fibrils) (Homo sapiens, UniProt P10636).
T2 construct: made in house; host or cells: E. coli
As to the kind of experiment: Competition binding assay, protocol 3a, reference ligand [3H]-compound 1, tau46 fibrils. Conditions: Experiment B, reference ligand [3H]-compound 1 (1 nM). The method, then: as §1, §2, §3, §4

Assay [2] addresses T3, alpha-synuclein (sonicated fibrils) (Homo sapiens, UniProt P37840).
T3 construct: made in house; host or cells: E. coli
Briefly: Modified competition binding assay, protocol 3b, reference ligand [3H]-compound 1. The following applies: Table 4b, reference ligand [3H]-compound 1 (1 nM), read-out: Ki (nM) alpha-synuclein (sonicated fibrils). The method, then: Fibrils were prepared by aggregation of recombinant protein via constant agitation. In detail, 70 μM of alpha-synuclein mixed with 100 mM NaCl in 50 mM Tris, pH 7.0+0.02% NaN3 were incubated at 1,400 rpm, 37° C. for 96 h. 10 μM of tau46 were incubated with 0.03 mg/ml heparin in 50 mM Tris, pH=7.0 at 1,000 rpm, 37° C. for 72 h.
Plates were incubated for 4.5 hours at RT covered by removable sealing tape (PerkinElmer, Waltham, Mass., USA).
Filtration and readout were performed as described for saturation binding assays.
The fibril competition assay provides Ki values. […] This assay is suitable for a screening of non-radioactive ligands.

Assay [3] deals with T3, alpha-synuclein (sonicated fibrils). As to the kind of experiment: Modified competition binding assay, protocol 3b, reference ligand [3H]-compound 2. Conditions: Table 5, reference ligand [3H]-compound 2 (1 nM). The procedure, abridged:
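Sonicated recombinant human αSYN fibrils (15 nM/well) incubated with 1 nM [3H]-compound 2 and serially diluted unlabeled competitor in 30 mM Tris-HCl, 10% ethanol, 0.05% Tween20, pH 7.4, 4.5 h at RT. Filtration readout; IC50 by non-linear regression, Ki calculated using KD 0.2 nM.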

The subject of assay [4] is H4 cells overexpressing alpha-synuclein hemi-Venus fusion constructs (V1S+SV2). As to the kind of experiment: Cellular model of aggregated alpha-synuclein-dependent toxicity, V1S+SV2 H4 cells. It is filed as cell-based. The following applies: 10 μM compound, 100 μM FeCl3, 0.75% DMSO, 48 h; for inhibition at 10 µM: read-out: Change in fraction of condensed nuclei (rel. to DMSO control) [%]. The method, then:
(§5) To identify potential therapeutically useful effects, compounds were tested in two cellular models of aggregated alpha-synuclein-dependent toxicity in H4 cells. These cellular models allow for the inducible overexpression of alpha-synuclein hemi-Venus fusion constructs (V1S+SV2) or full-length alpha-synuclein (the model is described in detail in: Bartels M, Weckbecker D, Kuhn P H, Ryazanov S, Leonov A, Griesinger C, Lichtenthaler S F, Bötzel K, Giese A: Iron-mediated aggregation and toxicity in a novel neuronal cell culture model with inducible alpha-synuclein expression, Sci. Rep. 2019 Jun. 24; 9(1):9100). Moreover, addition of DMSO and FeCl3 promotes the aggregation of alpha-synuclein which is associated with an increase in cytotoxicity. The cell culture assay uses these effects by determining the change in the number of cells and the change in the percentage of condensed nuclei, which is indicative of apoptosis, in order to obtain information on which compounds show the most promising effects and thus might be therapeutically useful.
(§6) In these experiments, cells were incubated with 100 μM FeCl3 and 0.75% DMSO in the presence of 10 μM anle138c as a positive control, compounds 1 to 19 (10 μM), or DMSO as a negative control. After 48 h, the cells were imaged with an OPERA high-throughput imaging system and analyzed using Acapella software (Perkin Elmer). […] A reduction in the fraction of condensed nuclei (in the absence of a strong reduction in cell number) is indicative of a beneficial therapeutic effect.

For assay [5], the system named is H4 cells overexpressing full-length alpha-synuclein. As to the kind of experiment: Cellular model of aggregated alpha-synuclein-dependent toxicity, full-length alpha-synuclein H4 cells. Format: cell-based. The following applies: 10 μM compound, 100 μM FeCl3, 0.75% DMSO, 48 h; for inhibition at 10 µM: read-out: Change in fraction of condensed nuclei (rel. to DMSO control) [%]. On the procedure:
as §5, §6

Setting [6] is: Experiment B, read-out: Ki (nM) alpha-synuclein (sonicated fibrils).

Read-outs that look alike come from different tables or passages of the source.

T2 sequence (P10636 1-412 isoform P10636-7): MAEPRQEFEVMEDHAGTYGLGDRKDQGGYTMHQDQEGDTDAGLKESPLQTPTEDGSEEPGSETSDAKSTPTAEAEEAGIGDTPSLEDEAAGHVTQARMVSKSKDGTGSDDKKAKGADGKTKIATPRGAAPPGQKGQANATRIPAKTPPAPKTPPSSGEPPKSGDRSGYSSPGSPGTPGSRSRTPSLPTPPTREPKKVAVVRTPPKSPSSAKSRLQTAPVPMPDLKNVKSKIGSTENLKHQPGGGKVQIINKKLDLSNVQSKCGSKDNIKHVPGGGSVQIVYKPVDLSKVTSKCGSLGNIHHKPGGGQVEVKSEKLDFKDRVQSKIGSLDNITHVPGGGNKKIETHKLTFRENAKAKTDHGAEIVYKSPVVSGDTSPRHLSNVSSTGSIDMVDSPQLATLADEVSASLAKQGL

The term Ki denotes a measure of affinity in units of concentration, obtained from inhibition or displacement. For `Brc1cc(-c2cc(-c3ccc4c(c3)OCO4)n[nH]2)ccn1` [Compound 9, 4-[3-(1,3-benzodioxol-5-yl)-1H-pyrazol-5-yl]-2-bromopyridine], the inhibition constant (Ki) in assay [1] (Experiment A, read-out: Ki (nM) alpha-synuclein (fibrils)) was 2 nM; in assay [1] (setting [6]) it was < 4 nM; on tau46 (fibrils), 28 nM; in assay [2], 2.1 nM; in assay [3], 3.3 nM. For the same compound, the “Change in cell number (rel. to DMSO control) [%]” value in assay [4] was −22.5%; in assay [5], −35.3%. The figures for the inhibition at 10 µM in assay [4] and in assay [5] were 31.8% and 23.8%, respectively.

In the case of `Brc1cc(-c2cc(-c3ccc(N4CCC4)cc3)n[nH]2)ccn1` [Compound 17, 4-{3-[4-(azetidin-1-yl)phenyl]-1H-pyrazol-5-yl}-2-bromopyridine], the Ki in assay [1] (setting [6]) is 2 nM; on tau46 (fibrils), 1 nM; in assay [3], 0.8 nM. Further, the “Change in cell number (rel. to DMSO control) [%]” value in assay [4] is −8.2%; in assay [5], −28.9%. Besides, the inhibition at 10 µM was 38.3% in assay [4] and 55% in assay [5].
